Results from patent US20160029626A1 (priority 2011, published 2016).
“Also recorded” adds a separate entry of the source.

Tests used:
biofilm of X. fastidiosa = format: cell-based, Xylella fastidiosa 9a5c strain
[1] = tested on: Peseudomonas aeruginosa, Klebsiella pneumoniae Enterobacter cloacae, and Staphylococcus aureus; details: Parry et al. (1976); cited from earlier work
[2] = Degradation of NAC in Hoagland nutrient solution in greenhouse (without plants), HPLC; format: physicochemical; details: 187.5 mg/mL expected without degradation
Experimental: A study to check the degradation of N-acetyl L-cysteine (NAC) was also performed in a Hoagland nutrient solution under the same conditions in which the in vivo experiment was carried out. The nutrient solution of Hoagland was prepared and placed in the receiving party of potted Leonard (without plants), as well as 600 mg N-acetyl L-cysteine (NAC).

X. fastidiosa biofilm = format: cell-based, Xylella fastidiosa 9a5c strain
X. fastidiosa [3] = tested on: X. fastidiosa; set-up: species or system orange pear (Citrus sinenses); details: in vivo
orange pear plants = assay: Plant development under NAC treatment (phytotoxicity); format: in vivo, orange pear (Citrus sinenses)
Experimental: 2. Experiments using NAC on infected plants: An analysis was performed with quantitative PCR, as described in sequence, to quantify the initial population of bacteria in plants. The plants were then transferred to Leonard pots, constructed from 750 mL glass bottles, cut and painted with metallic paint to prevent light penetration. Previously autoclaved, vermiculite and sand were added to the top of the vessel and in the collecting part, a Hoagland Arnon (1950) nutrient solution (FIG. 8). Two experiments were performed with different doses of N-acetyl L-cysteine (NAC), both conducted in a greenhouse (see table 1 below).
The first of the experiments was a pilot, in which 120 mg and 600 mg of N-acetyl L -cysteine (NAC) were added to 250 mL of Hoagland & Arnon (1950). Control plants were also maintained without addition of N-acetyl L-cysteine (NAC). The second test had plants to which were added 120 mg, 600 mg and 1500 mg L30 N-acetyl cysteine (NAC) along with 250 mL of nutrient solution of Hoagland & Arnon (1950) and control experiments without the addition of the compound. 4 biological repetitions were performed for each treatment in each experiment.

[4] = Quantification of NAC by HPLC in nutrient solution of Leonard pots with plants (uptake by the plant); details: for Measured Conc of NAC in the samples collected: nutrient solution after one day with the plant
X. fastidiosa [5] = tested on: X. fastidiosa; set-up: species or system orange pear (Citrus sinenses); details: in vivo; remark: listed apart in the source
[6] = tested on: citrus variegated chlorosis (CVC), X. fastidiosa; set-up: species or system orange pear (Citrus sinenses); details: in vivo
[7] = tested on: Streptococcus epidermidis, and Haemophilus influenzae, Moraxella catarrhalis; details: Zheng et al., 1999; OLOFSSON et al., 2003; cited from earlier work
X. fastidiosa [8] = format: cell-based, Xylella fastidiosa 9a5c strain

For `CC(=O)N[C@@H](CS)C(=O)O` [NAC, N-acetyl L-cysteine], the “lowering of EPS between control and treatment” value (biofilm of X. fastidiosa; 6 mg/ml NAC) is listed as “about 45%”, the “total amount of EPS vs control” value (biofilm of X. fastidiosa; NAC 1, 2, 6 mg/mL) is listed as “In control, the total amount of EPS was greater” and the “efficiency regarding the adhesion of bacteria” value [1] is listed as “demonstrated efficiency”. The “concentration of NAC remaining in Hoagland solution” value (from here on “concentration of NAC remaining”) ([2]; after 1 day in greenhouse) was 143140 µg/mL, the “concentration of NAC remaining” value ([2]; after 7 days in greenhouse) was 63220 µg/mL and the “concentration of NAC remaining” value ([2]; after 14 days in greenhouse) was 3150 µg/mL. The “cell mass of biofilms compared to the control condition” value (X. fastidiosa biofilm; different doses of NAC (1, 2, 6 mg/mL), 14 days) was “reduced compared to the control condition”, the “cell mass of planktonic cells” value (X. fastidiosa biofilm; different doses of NAC (1, 2, 6 mg/mL), planktonic fraction) was “increase in mass” and the biofilm formation (X. fastidiosa biofilm; doses of 1.0, 2.0 or 6.0 mg/mL) was “inhibited biofilm formation”. For the same molecule, the “number of X. fastidiosa cells isolated from plants after treatment” value (X. fastidiosa [3]) was “decrease in the number of X. fastidiosa cells; also recorded: strong decrease of bacteria”, the plant development (orange pear plants; 1500 mg NAC in 250 mL nutrient solution) was “plant development was clearly affected; also recorded: fall of leaves, wilting and visible damage to the physiological development of the plant” and the “plant development after interruption of treatment” value (orange pear plants; 1500 mg NAC, two months in soil without treatment) was “remained less developed”. The plant development (orange pear plants; lower doses (120 and 600 mg) NAC) was “do not cause problems for plant development”, the “absorption of the substance by the plant” value ([4]; 1500 mg NAC in 250 mL) was “absorption of the substance by the plant does not occur” and the “transport of NAC by the plant” value ([4]; measured concentrations below those expected (lower doses)) was “could be transported by the plant”. The “Measured Conc of NAC in the samples collected” value (“Measured Conc of NAC” for short) ([4]; total NAC 120 mg (expected 0.48 mg/mL)) was 0.288 mg/mL, the “Measured Conc of NAC” value ([4]; total NAC 600 mg (expected 2.4 mg/mL)) was 1.98 mg/mL and the “Measured Conc of NAC” value ([4]; total NAC 1500 mg (expected 6.0 mg/mL)) was 6.156 mg/mL. For the same molecule, the “amount of bacteria in each plant by qPCR” value (X. fastidiosa [5]) was “does not appear to have been affected”, the “CVC symptoms after interruption of treatment” value [6] was “symptoms were observed to be less severe; also recorded: chlorosis spots were not observed” and the “CVC symptoms in the leaves” value [6] was “visible reduction of symptoms; also recorded: some points chlorosis in the leaves, but in smaller quantities; also recorded: hardly possible to see symptoms; also recorded: visibly smaller”. For the same molecule, the “control of the bacterium (symptoms and number of bacterial cells in leaves)” value [6] was “effective in controlling the bacterium”, the “symptoms in treated plants” value [6] was “significant reduction of symptoms” and the “symptoms later than two months after interruption of treatment” value [6] was “resurgence of symptoms”. For the same molecule, the “adhesion of human pathogenic bacteria in epithelial cells and surface abiotic” value [7] was “reduce the adhesion”, the “CFU/mL in biofilm vs control” value (X. fastidiosa [8]; 1 mg/mL NAC) was “lower than in the control biofilm” and the “reduction of number of living cells present in the biofilm” value (X. fastidiosa [8]; 6 mg/mL NAC) was roughly 100%. The “toxic action towards X. fastidiosa cells” value (X. fastidiosa [8]; in vitro, 1.0, 2.0 or 6.0 mg/mL) was “toxic action; also recorded: toxic to the cells of bacteria” and the “CFU of planktonic cells in serial dilution” value (X. fastidiosa [8]; planktonic cells, NAC treatments, after 3 washes) was “not possible to count any CFU”.
